From the supplement of paper PMC8183993

Experiments:
Details in all cases: 24 h
U2OS [1] = test: nuclei count in HPG assay relative to DMSO (% of DMSO); higher = more viable cells
Procedure: (§1)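 Validation screen in U2OS cells: hits tested at 1, 3 and 10 uM for 24 h in duplicate plates. Translation was read by OPP incorporation (1 h pulse) and HPG incorporation (30 min in methionine-free medium), quantified by high-throughput microscopy alongside nuclei counts. All values are normalised to DMSO (= 100).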

U2OS [2] = test: nuclei count in OPP assay relative to DMSO (% of DMSO); higher = more viable cells
Procedure: as §1

U2OS [3] = test: mean HPG incorporation (global translation) relative to DMSO (% of DMSO); higher = more protein synthesis
Procedure: as §1

U2OS [4] = test: mean OPP incorporation (global translation) relative to DMSO (% of DMSO); higher = more protein synthesis
Procedure: as §1

SMILES	nuclei count in HPG assay (U2OS [1]; 1 µM)	nuclei count in HPG assay (U2OS [1]; 3 µM)	nuclei count in HPG assay (U2OS [1]; 10 µM)	nuclei count in OPP assay (U2OS [2]; 1 µM)	nuclei count in OPP assay (U2OS [2]; 3 µM)	nuclei count in OPP assay (U2OS [2]; 10 µM)	mean HPG incorporation (U2OS [3]; 1 µM)	mean HPG incorporation (U2OS [3]; 3 µM)	mean HPG incorporation (U2OS [3]; 10 µM)	mean OPP incorporation (U2OS [4]; 1 µM)	mean OPP incorporation (U2OS [4]; 3 µM)	mean OPP incorporation (U2OS [4]; 10 µM)
CC(C)n1nc(-c2cc3cc(O)ccc3[nH]2)c2c(N)ncnc21 [Torkinib (PP242)]	96.6	83	76.6	96	81.7	74.7	42.9	32.7	30.9	58.4	37.4	27.3
CCCc1cc(C)[nH]c(=O)c1CNC(=O)c1cc(-c2ccc(N3CCN(C(C)C)CC3)nc2)cc2c1cnn2C(C)C [UNC1999]	93.7	94.7	80.6	89.3	93.6	73.9	111	119	77.1	108	119	122
